Converted amounts (≈) assume the structure as drawn. Where a SMILES comes first, the peptide text is derived from it. Bridges are numbered along the chain shown (N, C = ends). [ ]: non-standard residue; d: D form. The star is where a group is joined. X2 = CC[C@H](C)CCCCC(=O)*; Heptanoyl = CCCCCCC(=O)*; Octanoyl = CCCCCCCC(=O)*; Dab = NCC[C@H](N)C(=O)O; Nva = CCC[C@H](N)C(=O)O
How the values were obtained:
Type in all cases: cell-based
[1] = system: Klebsiella pneumoniae ATCC BAA-2146 (NDM-1); experiment: Antibacterial activity, MIC by dish double dilution method; settings: ATCC BAA-2146
Description: (§1) The minimum inhibitory concentration (MIC) was determined by means of dish double dilution method using a Multipoint inoculator according to the CLSI recommended method. The compounds of the present invention (for example, the compounds prepared in the Embodiments) and the reference substances were diluted twice each time with the broth into various desired concentrations, and appropriate amounts were added to the dishes. Agar medium is melted, and then quantitatively injected into the dish containing the drug solution, and mixed. The final concentrations of the compounds of the invention (e.g., the compounds prepared in the Embodiments) and the controls were 0.03, 0.06, 0.125, 0.25 . . . 128 μg/mL, respectively. The test bacteria were cultured overnight with nutrient broth, brain heart infusion or HTM broth. During the tests, the bacterial solutions were diluted appropriately, and the test bacteria (inoculation amount 10^4 CFU/dot) were inoculated on the surface of the drug-containing agar by a multi-point inoculator. After drying, the bacterial was incubated for 18 to 24 hours at 35° C., the results were observed, the minimum concentrations of the compounds of the present invention (for example, the compounds prepared in the Embodiments) and the controls contained in the dishes with no growth of colonies were MICs.
(§2) The strains used in the antibacterial activity experiments were from the American Type Culture Collection (ATCC) and clinical isolates.
(§3) The strains used for the experiments on antibacterial activity included Escherichia coli ATCC 25922, Klebsiella pneumoniae ATCC BAA-2146 (NDM-1), Pseudomonas aeruginosa ATCC 27853, Acinetobacter baumannii ATCC 19606 and Staphylococcus epidermidis ATCC 12228.
(§4) Tested samples: polymyxin derivatives prepared according to the technical scheme of the present invention;
(§5) Controls: polymyxin B sulfate and colistin (polymyxin E sulfate).

[2] = system: Staphylococcus epidermidis ATCC 12228; settings: ATCC 12228
Description: as §1, §2, §3, §4, §5

[3] = system: Pseudomonas aeruginosa ATCC 27853; settings: ATCC 27853
Description: as §1, §2, §3, §4, §5

[4] = system: Escherichia coli ATCC 25922; settings: ATCC 25922
Description: as §1, §2, §3, §4, §5

[5] = system: Acinetobacter baumannii ATCC 19606; settings: ATCC 19606
Description: as §1, §2, §3, §4, §5

Row | Structure (SMILES) | MIC K. pneumoniae ATCC BAA-2146 (NDM-1) [1] [µg/mL] | MIC S. epidermidis ATCC 12228 [2] [µg/mL] | MIC P. aeruginosa ATCC 27853 [3] [µg/mL] | MIC E. coli ATCC 25922 [4] [µg/mL] | MIC A. baumannii ATCC 19606 [5] [µg/mL]
1 | CCCCCCCC(=O)N[C@@H](CCN)C(=O)N[C@H](C(=O)N[C@@H](CCN)C(=O)N[C@H]1CCNC(=O)[C@H]([C@@H](C)O)NC(=O)[C@H](CCN)NC(=O)[C@H](CCN)NC(=O)[C@H](C(C)C)NC(=O)[C@@H](CC(C)C)NC(=O)[C@H](CCN)NC1=O)[C@@H](C)O [Compound 80, octanoyl-Dab-Thr-Dab-ring(4-10)[Dab-Dab-D-Leu-Val-Dab-Dab-Thr]] (Octanoyl-[Dab]T[Dab][Dab][Dab][dL]V[Dab][Dab]T; lactam 4-C) | 0.5 (≈ 0.438 µM) | >128 | 1 (≈ 0.876 µM) | 0.5 (≈ 0.438 µM) | 1 (≈ 0.876 µM)
2 | CCCCCCCC(=O)N[C@@H](CCN)C(=O)N[C@H](C(=O)N[C@@H](CCN)C(=O)N[C@H]1CCNC(=O)[C@H]([C@@H](C)O)NC(=O)[C@H](CCN)NC(=O)[C@H](CCN)NC(=O)[C@H](CCC)NC(=O)[C@@H](CC(C)C)NC(=O)[C@H](CCN)NC1=O)[C@@H](C)O [Compound 81, octanoyl-Dab-Thr-Dab-ring(4-10)[Dab-Dab-D-Leu-Nva-Dab-Dab-Thr]] (Octanoyl-[Dab]T[Dab][Dab][Dab][dL][Nva][Dab][Dab]T; lactam 4-C) | 1 (≈ 0.876 µM) | >128 | 1 (≈ 0.876 µM) | 0.5 (≈ 0.438 µM) | 1 (≈ 0.876 µM)
3 | CCCCCCC(=O)N[C@@H](CCN)C(=O)N[C@H](C(=O)N[C@@H](CCN)C(=O)N[C@H]1CCNC(=O)[C@H]([C@@H](C)O)NC(=O)[C@H](CCN)NC(=O)[C@H](CCN)NC(=O)[C@H]([C@@H](C)CC)NC(=O)[C@@H](CC(C)C)NC(=O)[C@H](CCN)NC1=O)[C@@H](C)O [Compound 83, heptanoyl-Dab-Thr-Dab-ring(4-10)[Dab-Dab-D-Leu-Ile-Dab-Dab-Thr]] (Heptanoyl-[Dab]T[Dab][Dab][Dab][dL]I[Dab][Dab]T; lactam 4-C) | 1 (≈ 0.876 µM) | >128 | 1 (≈ 0.876 µM) | 0.5 (≈ 0.438 µM) | 1 (≈ 0.876 µM)
4 | CCCCCCCC(=O)N[C@@H](CCN)C(=O)N[C@H](C(=O)N[C@@H](CO)C(=O)N[C@H]1CCNC(=O)[C@H]([C@@H](C)O)NC(=O)[C@H](CCN)NC(=O)[C@H](CCN)NC(=O)[C@H](CC(C)C)NC(=O)[C@@H](CC(C)C)NC(=O)[C@H](CCN)NC1=O)[C@@H](C)O [Compound 98, octanoyl-Dab-Thr-Ser-ring(4-10)[Dab-Dab-D-Leu-Leu-Dab-Dab-Thr]] (Octanoyl-[Dab]TS[Dab][Dab][dL]L[Dab][Dab]T; lactam 4-C) | 1 (≈ 0.875 µM) | >128 | 1 (≈ 0.875 µM) | 0.5 (≈ 0.438 µM) | 0.5 (≈ 0.438 µM)
5 | CC[C@H](C)CCCCC(=O)N[C@@H](CCN)C(=O)N[C@H](C(=O)N[C@@H](CCN)C(=O)N[C@H]1CCNC(=O)[C@H]([C@@H](C)O)NC(=O)[C@H](CCN)NC(=O)[C@H](CCN)NC(=O)[C@H]([C@@H](C)O)NC(=O)[C@@H](CC(C)C)NC(=O)[C@H](CCN)NC1=O)[C@@H](C)O [Compound 102, (S)-6-methyloctanoyl-Dab-Thr-Dab-ring(4-10)[Dab-Dab-D-Leu-Thr-Dab-Dab-Thr]] (X2-[Dab]T[Dab][Dab][Dab][dL]T[Dab][Dab]T; lactam 4-C) | 0.25 (≈ 0.216 µM) | >128 | 1 (≈ 0.864 µM) | 1 (≈ 0.864 µM) | 0.5 (≈ 0.432 µM)
6 | CCCCCCCC(=O)N[C@@H](CCN)C(=O)N[C@H](C(=O)N[C@@H](CCN)C(=O)N[C@H]1CCNC(=O)[C@H]([C@@H](C)O)NC(=O)[C@H](CCN)NC(=O)[C@H](CCN)NC(=O)[C@H]([C@@H](C)O)NC(=O)[C@@H](CC(C)C)NC(=O)[C@H](CCN)NC1=O)[C@@H](C)O [Compound 104, octanoyl-Dab-Thr-Dab-ring(4-10)[Dab-Dab-D-Leu-Thr-Dab-Dab-Thr]] (Octanoyl-[Dab]T[Dab][Dab][Dab][dL]T[Dab][Dab]T; lactam 4-C) | 0.5 (≈ 0.437 µM) | 64 (≈ 56 µM) | 1 (≈ 0.875 µM) | 0.25 (≈ 0.219 µM) | 0.5 (≈ 0.437 µM)

— patent US20190315806A1, “POLYMYXIN DERIVATIVE, PREPARATION METHOD AND APPLICATION THEREOF” (priority 2016, published 2019)
